Where “and” joins values, the source holds several entries; their conditions need not be identical. Equal values may be shown once. Read-outs that look alike come from different tables or passages of the source.
Assays:
[1] = parameters: method as in earlier work; conditions: cited from earlier work
[2] = rat, in vivo; for AUC0–96 (area under the curve up to 96 h) / AUC0–∞ (area under the total concentration-time curve) / CL (systemic clearance) / Cmax (maximum concentration) / MRT (mean residence time) / Tmax (time of peak concentration) / Vd (steady-state volume of distribution) / ke (elimination rate constant) / t1/2 (half-life): po
[3] = rat, in vivo, iv, 180 mg/kg
[4] = Urine and feces excretion after oral administration; assay type: in vivo, Wistar rats; conditions: oral 180 mg/kg
Experimental: Rats were placed in metabolism cages during the experiment to facilitate urine and feces collection. Urine and feces were collected during 0–1 h, 1–2, 2–4, 4–8, 8–12, 12–24, 24–48 and […]. Urine volume and feces weight were measured, and samples were frozen at −20°C until analysis.
(§1) The urine, bile, postdialysis serum and buffer samples were aliquots into 0.1 mL, treated in the same way as plasma samples.
(§2) Feces, fat and pancreas samples were aliquots into 0.1 g and dipped in 1 mL concentrated H2SO4 in test tubes. […] 3 mL concentrated HNO3was added at 120°C for 12 h until thorough dissolution.
(§3) Concentrations of Compound 1 were determined by atomic spectrometry. Samples were analyzed directly by ICP-MS. Polyoxometalate concentrations were estimated directly from measured tungsten concentrations.

[5] = Bile excretion after oral administration (bile duct cannulation); assay type: in vivo, Rats; conditions: oral 180 mg/kg, % of the drug tested
Experimental: Bile excretion: Rats (n = 6, male and female in equal) were anesthetized with diethyl ether, and bile duct were cannulated with a polyethylene tube. After recovery from anesthesia, rates were orally administered Compound 1 at a dose of 180 mg/kg BW. The bile samples were collected during 0–1, 1–2, 2–4, 4–8, 8–12, 12–24 and 24–48 h by bile duct cannulation. The bile volume was measured, and samples were frozen at −20°C until analysis.
as §1, §3

rat plasma protein = experiment: Plasma protein binding by equilibrium dialysis; assay type: in vitro ADME; conditions: for Protein binding rate, Mean: six parallel samples
Experimental: Various amounts of Compound 1 were added to pooled male rat serum to yield concentrations of 9, 18 and 36 mg/mL. The dialysis membrane was Spectrapor II (Beijing Dingguo Changsheng Biotechnology Co. Ltd, China) with a molecular weight cutoff of 12,000 to 14,000. […] Dialyzed serum and buffer volumes were collected and frozen at −20°C until analysis, and binding data were corrected for fluid shifts that occurred during dialysis. Experiments were done in six parallel samples. The following formula was used to calculate plasma protein binding rate of Compound 1 under different concentrations: [drawing 1]
Cplasma: concentration of Compound 1;
Cbuffer: concentration of Compound 1 in buffer
as §1

[6] = Tissue distribution after oral administration; assay type: in vivo, Wistar rats; conditions: oral 180 mg/kg
Experimental: Five rats for each duration, 2, 24, 48 and 96 h post-dose, were sacrificed by decapitation after administration of Compound 1. The whole brain, heart, liver, spleen, lung, kidney, uterus, testis, ovary, epididymis, stomach, intestine, pancreas, thymus, fat, and skeletal muscle were rapidly dissected and harvested. All tissues and organs were weighed on an analytical balance and frozen at −20°C until analysis.
The tissue samples (except for fat and pancreas) were aliquots into 0.1 g and dipped in 3 mL concentrated HNO3 in test tubes.
as §2, §3

hepatitis B virus = tested on: hepatitis B virus; parameters: method as in PMID 22264474; conditions: cited from earlier work

## Cs2K4Na[SiW9Nb3O40].H2O [Compound 1]
[1]
  reproductive toxicity: no obvious reproductive toxicity
[2]
  Tmax range: 6 to 180 min
  half-life range: 20 to 30 h
[2]; 180 mg/kg
  absolute bioavailability: 14.67%
  AUC0–96 (area under the curve up to 96 h): 373.9 ± 112.7 µg·h/mL
  AUC0–∞ (area under the total concentration-time curve): 410.1 ± 128.5 µg·h/mL
  CL (systemic clearance): 117.1 ± 29.49 mL/h
  Cmax (maximum concentration): 30850 ± 14250 ng/mL
  MRT (mean residence time): 35.42±5.940 H
  Tmax (time of peak concentration): 1.833±0.753 H
  Vd (steady-state volume of distribution): 4620 ± 829.9 mL
  ke (elimination rate constant): 0.025 ± 0.003 h⁻¹
  t1/2 (half-life): 27.88±3.221 H
[2]; 45 mg/kg
  AUC0–96 (area under the curve up to 96 h): 150.9 ± 87.15 µg·h/mL
  AUC0–∞ (area under the total concentration-time curve): 165.1 ± 94.98 µg·h/mL
  CL (systemic clearance): 86.96 ± 42.45 mL/h
  Cmax (maximum concentration): 11130 ± 8370 ng/mL
  MRT (mean residence time): 36.45±4.495 H
  Tmax (time of peak concentration): 2.000±0.632 H
  Vd (steady-state volume of distribution): 3437 ± 1593 mL
  ke (elimination rate constant): 0.025 ± 0.002 h⁻¹
  t1/2 (half-life): 27.91±2.606 H
[2]; 720 mg/kg
  AUC0–96 (area under the curve up to 96 h): 1216 ± 402.2 µg·h/mL
  AUC0–∞ (area under the total concentration-time curve): 1316 ± 449.7 µg·h/mL
  CL (systemic clearance): 153.7 ± 62.35 mL/h
  Cmax (maximum concentration): 49290 ± 9939 ng/mL
  MRT (mean residence time): 37.57±4.676 H
  Tmax (time of peak concentration): 2.167±0.753 H
  Vd (steady-state volume of distribution): 5583 ± 2416 mL
  ke (elimination rate constant): 0.028 ± 0.003 h⁻¹
  t1/2 (half-life): 24.92±2.178 H
[3]
  AUC0–96 (area under the curve up to 96 h): 2549 ± 327.3 µg·h/mL
  AUC0–∞ (area under the total concentration-time curve): 2965 ± 342.8 µg·h/mL
  CL (systemic clearance): 15.34 ± 1.695 mL/h
  Cmax (maximum concentration): 235400 ± 66910 ng/mL
  MRT (mean residence time): 47.05 ± 3.529 h
  Tmax (time of peak concentration): 8.34 ± 5.16 min
  Vd (steady-state volume of distribution): 679.7 ± 114.7 mL
  compartment model fitted by the pharmacokinetic behavior: two compartment model
  ke (elimination rate constant): 0.023 ± 0.004 h⁻¹
  t1/2 (half-life): 30.76 ± 4.658 h
[4]; till 48 h
  total excreted, % of the total amount administered: about 30.84%
[4]; till 72 h
  total excreted, % of the total amount administered: about 31.1%
[5]
  accumulative excretion rate, bile: about 0.42%
Rat plasma protein; 36 mg/ml
  extent of binding to rat plasma protein: moderately bound
Rat plasma protein; 9–18 mg/ml
  extent of binding to rat plasma protein: highly bound
Rat plasma protein; added concentration 9 mg/mL, rat serum, dialysis 48 h, 37°C, pH 7.4
  Protein binding rate (single samples): 47.79% and 54.71% and 73.72% and 62.68% and 67.76% and 66.13%
Rat plasma protein; added concentration 9 mg/mL, dialysis 48 h
  Protein binding rate, Mean: 62.13%
Rat plasma protein; added concentration 18 mg/mL, dialysis 48 h
  Protein binding rate, Mean: 71.20%
Rat plasma protein; added concentration 36 mg/mL, dialysis 48 h
  Protein binding rate, Mean: 49.00%
[6]
  content in kidney and liver relative to the other tissues: 10–70 times
  deposition in the brain: Less deposition
[6]; 16 tissues
  tissue with highest deposition: kidney, followed by the stomach, intestine and liver
[6]; 96 h
  content in tissues at 96 h relative to peak content: less than 10%
Hepatitis B virus; HepG2.2.15 cells
  secretion of HBV antigens and HBV DNA: effectively suppressed
Hepatitis B virus; HepG 2.2.15
  activity against HBV: high activity against HBV
  toxicity: low toxicity

Reference: paper PMC4055585, “Pharmacokinetics of Anti-HBV Polyoxometalate in Rats” (PLoS ONE, 2014)
